Assay results taken from patent US6720343B2, “Oxadiazole derivatives having anticancer effects” (Shionogi & Co., Ltd., priority 2002, dated 2004).
Read-outs that look alike come from different tables or passages of the source. Blank lines part the entries; values can stand above or below the molecule they belong to.

Legend:
MMP-9 = biological target: T1, MMP-9 (Homo sapiens, UniProt P14780); assay: Assay for inhibitory activities on MMPs (fluorogenic peptide substrate), MMP-9; type: biochemical
T1 construct: purchased Calbiochem-Novabiochem International, Inc
T1 sequence (P14780 94-707): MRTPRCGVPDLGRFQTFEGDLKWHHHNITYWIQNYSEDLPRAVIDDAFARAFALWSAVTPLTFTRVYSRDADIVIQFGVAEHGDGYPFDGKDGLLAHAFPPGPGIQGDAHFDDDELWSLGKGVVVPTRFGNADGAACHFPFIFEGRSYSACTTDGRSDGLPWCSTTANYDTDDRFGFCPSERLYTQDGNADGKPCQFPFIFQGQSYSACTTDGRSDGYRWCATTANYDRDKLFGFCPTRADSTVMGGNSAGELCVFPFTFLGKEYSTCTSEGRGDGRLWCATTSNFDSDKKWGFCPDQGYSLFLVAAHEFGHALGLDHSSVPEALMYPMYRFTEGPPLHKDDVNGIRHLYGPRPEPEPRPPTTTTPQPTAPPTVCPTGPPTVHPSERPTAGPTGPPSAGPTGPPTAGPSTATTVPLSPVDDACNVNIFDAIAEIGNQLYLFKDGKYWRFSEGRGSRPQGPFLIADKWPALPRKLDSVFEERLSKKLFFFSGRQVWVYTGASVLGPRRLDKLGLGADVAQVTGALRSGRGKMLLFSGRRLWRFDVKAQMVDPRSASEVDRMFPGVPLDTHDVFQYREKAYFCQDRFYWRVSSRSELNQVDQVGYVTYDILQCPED
Method: MMP-9 was purchased from Calbiochem-Novabiochem International, Inc.
(§1) The enzymatic activity on MMPs was analyzed by the method described in “C. […] The substrate (MOCAc-Pro-Leu-Gly-Leu-A2Pr(DNP)-Ala-Arg-NH2) was purchased from Peptide Institute, Inc., Osaka, Japan.
(§2) The measurement of the inhibitory activities (IC50) was carried out by the following four methods;
(§3) A) Reaction with substrate, enzyme (MMPs) and inhibitor
(§4) B) Reaction with substrate and inhibitor, without enzyme
(§5) C) Reaction with substrate and enzyme (MMPs), without inhibitor
(§6) D) Reaction with substrate only
(§7) IC50 values were calculated by using the following formula and each fluorescence values of above four methods (A to D).
(§8) % inhibition={1−(A−B)/(C−D)}×100

[1] = system: Lewis mouse lung carcinoma cells; assay: Antitumor efficacy using artificial lung metastasis of Lewis mouse lung carcinoma; type: in vivo, BDF1 mice; details: for inhibition in vivo at 20 mg/kg / inhibition in vivo at 200 mg/kg / inhibition in vivo at 2 mg/kg: Mus musculus, po, 336 h, read-out: Inhibition (%)
Method: Lewis mouse lung carcinoma cells (4×10^5 cells) were inoculated into the tail vein of BDF1 mice. […] The doses of the compounds were 20 and 200 mg/kg or 2 and 20 mg/kg. At 14 day after tumor inoculation, tumor nodules formed in the lung of the treated mice were counted and the antitumor efficacy was evaluated.

MMP-2 = biological target: T2, MMP-2 (Homo sapiens, UniProt P08253); assay: Assay for inhibitory activities on MMPs (fluorogenic peptide substrate), MMP-2; type: biochemical
T2 construct: purchased Calbiochem-Novabiochem International, Inc
T2 sequence (P08253 110-660): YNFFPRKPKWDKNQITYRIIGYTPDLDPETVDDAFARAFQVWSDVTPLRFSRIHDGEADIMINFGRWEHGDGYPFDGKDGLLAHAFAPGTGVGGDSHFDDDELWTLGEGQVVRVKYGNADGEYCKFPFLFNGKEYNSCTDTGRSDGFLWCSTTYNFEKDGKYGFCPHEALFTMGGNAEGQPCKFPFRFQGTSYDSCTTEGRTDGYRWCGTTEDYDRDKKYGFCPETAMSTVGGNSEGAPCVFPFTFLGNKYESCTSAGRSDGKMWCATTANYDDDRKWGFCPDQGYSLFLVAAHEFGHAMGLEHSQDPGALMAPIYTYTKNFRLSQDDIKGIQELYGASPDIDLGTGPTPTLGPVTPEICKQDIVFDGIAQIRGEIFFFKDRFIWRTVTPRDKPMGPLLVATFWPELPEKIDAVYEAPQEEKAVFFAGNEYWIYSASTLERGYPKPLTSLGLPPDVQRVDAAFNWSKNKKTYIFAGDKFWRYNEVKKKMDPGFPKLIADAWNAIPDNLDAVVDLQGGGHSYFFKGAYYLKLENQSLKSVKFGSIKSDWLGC
Method: MMP-2 was purchased from Calbiochem-Novabiochem International, Inc.
as §1, §2, §3, §4, §5, §6, §7, §8

MMP-8 Catalytic domain = biological target: T3, MMP-8 Catalytic domain (Homo sapiens, UniProt P22894); assay: Assay for inhibitory activities on MMPs (fluorogenic peptide substrate), MMP-8; type: biochemical
T3 construct: MMP-8 Catalytic domain (^99Phe˜^262Gly); His-tag; Enterokinase digestion site; made in house; host or cells: E. coli
T3 sequence (P22894 99-262): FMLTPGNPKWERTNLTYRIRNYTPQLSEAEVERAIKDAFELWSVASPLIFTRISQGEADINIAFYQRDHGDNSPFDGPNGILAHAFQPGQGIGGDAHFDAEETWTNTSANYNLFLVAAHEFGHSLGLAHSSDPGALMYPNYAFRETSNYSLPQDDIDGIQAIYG
Method: The DNA fragment was cloned into an E. coli expression vector, pTrc99A containing the His-tag sequence and Enterokinase digestion site. The MMP-8 Catalytic domain expression was induced by the addition of IPTG (Isopropyl-β-D-thiogalactopyranoside), and the cell pellet containing MMP-8 Catalytic domain was obtained. […] Isolation of MMP-8 from the cell pellet was used by general techniques. After the cell pellet was dissolved in 6M urea, the solution was loaded onto a metal-chelating matrix. Subsequently, dialysis was used to remove urea and refold of MMP=8. And then active MMP-8 was obtained.
as §1, §2, §3, §4, §5, §6, §7, §8

[2] = experiment 3-1, 20 mg/kg oral, five times, lung tumor nodules at day 14
[3] = experiment 3-1, 200 mg/kg oral, five times, lung tumor nodules at day 14
[4] = experiment 3-2, 20 mg/kg oral, five times, lung tumor nodules at day 14
[5] = experiment 3-2, 200 mg/kg oral, five times, lung tumor nodules at day 14
[6] = experiment 3-3, 2 mg/kg oral, five times, lung tumor nodules at day 14
[7] = experiment 3-3, 20 mg/kg oral, five times, lung tumor nodules at day 14

Compound: Cc1ccc(-c2noc(-c3ccc(S(=O)(=O)N[C@H](C)C(=O)O)cc3)n2)cc1 [Compound A-1]
IC50 (MMP-9): 470 nM
inhibition in vivo at 20 mg/kg [1, 2]: 53%
inhibition in vivo at 200 mg/kg [1, 3]: 69%
Number of colonies (Mean ± SD) [1, 2]: 20.2 ± 13.3
Number of colonies (Mean ± SD) [1, 3]: 13.3 ± 11.8
IC50 (MMP-2): 30 nM
IC50 (MMP-8 Catalytic domain): > 1000 nM
melting point: 200 to 203 °C

Compound: C[C@@H](NS(=O)(=O)c1ccc(-c2nc(-c3ccc(Cl)cc3)no2)cc1)C(=O)O [Compound A-4]
IC50 (MMP-9): 190 nM
inhibition in vivo at 20 mg/kg [1]: 55%
inhibition in vivo at 200 mg/kg [1]: 46%
Number of colonies (Mean ± SD) [1, 2]: 19.2 ± 9.4
Number of colonies (Mean ± SD) [1, 3]: 23.3 ± 12.8
IC50 (MMP-2): 26 nM
IC50 (MMP-8 Catalytic domain): > 1000 nM

Compound: Cc1ccc(-c2noc(-c3ccc(S(=O)(=O)N[C@@H](Cc4ccccc4)C(=O)O)cc3)n2)cc1 [Compound A-8]
IC50 (MMP-9): 479 nM
inhibition in vivo at 20 mg/kg [1]: 56%
inhibition in vivo at 200 mg/kg [1]: 63%
Number of colonies (Mean ± SD) [1, 2]: 18.8 ± 11.4
Number of colonies (Mean ± SD) [1, 3]: 15.7 ± 5.5
IC50 (MMP-2): 51 nM
IC50 (MMP-8 Catalytic domain): > 1000 nM

Compound: Cc1ccc(-c2noc(-c3ccc(S(=O)(=O)N[C@@H](C(=O)O)C(C)C)cc3)n2)s1 [Compound A-93]
IC50 (MMP-9): 47 nM
inhibition in vivo at 2 mg/kg [1]: 41%
inhibition in vivo at 20 mg/kg [1]: 50%
Number of colonies (Mean ± SD) [1, 6]: 36.3 ± 9.2
Number of colonies (Mean ± SD) [1, 7]: 30.8 ± 10.8
IC50 (MMP-2): 6 nM
IC50 (MMP-8 Catalytic domain): 88 nM

Compound: O=C(O)[C@@H](Cc1c[nH]c2ccccc12)NSOOc1ccc(-c2nnn(-c3ccccc3)n2)cc1 [Compound B-1, reference compound]
inhibition in vivo at 20 mg/kg [1, 2]: 38%
inhibition in vivo at 200 mg/kg [1, 3]: 46%
inhibition in vivo at 20 mg/kg [1, 4]: 37%
inhibition in vivo at 200 mg/kg [1, 5]: 31%
inhibition in vivo at 2 mg/kg [1, 6]: 14%
inhibition in vivo at 20 mg/kg [1, 7]: 39%
Number of colonies (Mean ± SD) [1, 2]: 26.5 ± 19.5
Number of colonies (Mean ± SD) [1, 3]: 23.0 ± 7.6
Number of colonies (Mean ± SD) [1, 4]: 34.8 ± 14.5
Number of colonies (Mean ± SD) [1, 5]: 38.3 ± 20.7
Number of colonies (Mean ± SD) [1, 6]: 53.5 ± 18.5
Number of colonies (Mean ± SD) [1, 7]: 37.5 ± 13.0

Now from value to molecule, other results behind:

IC50 (MMP-9): > 1000 nM
IC50 (MMP-2): 53 nM
IC50 (MMP-8 Catalytic domain): > 1000 nM
melting point: 221 to 222 °C
Compound: O=C(O)[C@@H](Cc1ccccc1)NS(=O)(=O)c1ccc(-c2nc(-c3ccccc3)no2)cc1 [Compound A-2]

IC50 (MMP-9): 384 nM
IC50 (MMP-2): 15 nM
IC50 (MMP-8 Catalytic domain): 775 nM
Compound: Cc1ccc(-c2noc(-c3ccc(S(=O)(=O)N[C@H](Cc4ccccc4)C(=O)O)cc3)n2)cc1 [Compound A-3]

IC50 (MMP-9): > 1000 nM
IC50 (MMP-2): 30 nM
IC50 (MMP-8 Catalytic domain): 610 nM
Compound: CC(C)[C@@H](NS(=O)(=O)c1ccc(-c2nc(-c3cccs3)no2)cc1)C(=O)O [Compound A-5]
inhibition in vivo at 20 mg/kg [1, 4]: 24%
inhibition in vivo at 200 mg/kg [1, 5]: 37%
Number of colonies (Mean ± SD) [1, 4]: 41.8 ± 22.5
Number of colonies (Mean ± SD) [1, 5]: 34.8 ± 12.1

IC50 (MMP-9): > 1000 nM
IC50 (MMP-2): 50 nM
IC50 (MMP-8 Catalytic domain): > 1000 nM
Compound: C[C@@H](NS(=O)(=O)c1ccc(-c2nc(-c3ccc(F)cc3)no2)cc1)C(=O)O [Compound A-6]
inhibition in vivo at 20 mg/kg [1, 4]: 26%
inhibition in vivo at 200 mg/kg [1, 5]: 57%
Number of colonies (Mean ± SD) [1, 4]: 40.8 ± 13.5
Number of colonies (Mean ± SD) [1, 5]: 24.0 ± 9.7

IC50 (MMP-9): 78 nM
IC50 (MMP-2): 8 nM
IC50 (MMP-8 Catalytic domain): > 1000 nM
Compound: CCc1ccc(-c2noc(-c3ccc(S(=O)(=O)N[C@H](Cc4ccccc4)C(=O)O)cc3)n2)cc1 [Compound A-7]
inhibition in vivo at 20 mg/kg [1, 2]: 56%
inhibition in vivo at 200 mg/kg [1, 3]: 49%
Number of colonies (Mean ± SD) [1, 2]: 18.8 ± 6.9
Number of colonies (Mean ± SD) [1, 3]: 21.7 ± 9.6

IC50 (MMP-9): 566 nM
IC50 (MMP-2): 18 nM
IC50 (MMP-8 Catalytic domain): > 1000 nM
Compound: O=C(O)[C@@H](Cc1c[nH]c2ccccc12)NS(=O)(=O)c1ccc(-c2nc(-c3ccccc3)no2)cc1 [Compound A-9]
inhibition in vivo at 20 mg/kg [1, 4]: 30%
inhibition in vivo at 200 mg/kg [1, 5]: 51%
Number of colonies (Mean ± SD) [1, 4]: 38.7 ± 5.8
Number of colonies (Mean ± SD) [1, 5]: 27.0 ± 9.7

IC50 (MMP-9): > 1000 nM
IC50 (MMP-2): 65 nM
IC50 (MMP-8 Catalytic domain): > 1000 nM
Compound: C[C@@H](NS(=O)(=O)c1ccc(-c2nc(-c3ccccc3)no2)cc1)C(=O)O [Compound A-10]
inhibition in vivo at 20 mg/kg [1, 2]: 43%
inhibition in vivo at 200 mg/kg [1, 3]: 41%
Number of colonies (Mean ± SD) [1, 2]: 24.5 ± 7.8
Number of colonies (Mean ± SD) [1, 3]: 25.2 ± 17.0
